# Test results: PubChem BioAssay AID1963430 (Molecular Pharmacology Branch, DTP, NCI, 2024)
# System: 521955-158-R2-J5-PDC complex spheroid growth, % test/control
# Assay: Anticancer human tumor 521955-158-R2-J5-PDC patient-derived pancreatic carcinoma cell line growth inhibition [Asc]
# Conditions: for IC50: curve of first compound; for viability, T/C: stronger effect = lower value
# Summary of the method: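 Tumor cells were grown as multicellular spheroids with stromal HUVEC and mesenchymal stem cells and treated singly or in combination. Concentrations fell in half-log steps from the clinical Cmax, or from 10 microM where none was known.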
# 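Further: spheroids exposed to agents for 7 days before readout.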
# 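Wherever viability, T/C is given: 100% = DMSO vehicle control viability.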
smiles,measurement,setting,value
NC(=O)C(=Cn1cnc(-c2cc(C(F)(F)F)cc(C(F)(F)F)c2)n1)c1cncnc1 + CNC(C)C(=O)NC1CN(S(=O)(=O)c2cccc(S(=O)(=O)N3CCC4CCC(C(=O)NC(c5ccccc5)c5ccccc5)N4C(=O)C(NC(=O)C(C)NC)C3)c2)CCC2CCC(C(=O)NC(c3ccccc3)c3ccccc3)N2C1=O,IC50,second compound 0.01 µM,5.34 nM
same,IC50,second compound 0.0316 µM,8.62 nM
same,IC50,second compound 0.1 µM,44.6 nM
same,IC50,second compound 0.316 µM,23.4 nM
same,IC50,second compound 1 µM,47.4 nM
same,"viability, T/C","second compound 0.01 µM, first compound 0.000949 µM",96.9%
same,"viability, T/C","second compound 0.01 µM, first compound 0.003 µM",60.7%
same,"viability, T/C","second compound 0.01 µM, first compound 0.00949 µM",39%
same,"viability, T/C","second compound 0.01 µM, first compound 0.03 µM",43%
same,"viability, T/C","second compound 0.01 µM, first compound 0.0949 µM",37.4%
same,"viability, T/C","second compound 0.01 µM, first compound 0.3 µM",34.8%
same,"viability, T/C","second compound 0.0316 µM, first compound 0.000949 µM",84.4%
same,"viability, T/C","second compound 0.0316 µM, first compound 0.003 µM",91.9%
same,"viability, T/C","second compound 0.0316 µM, first compound 0.00949 µM",46.5%
same,"viability, T/C","second compound 0.0316 µM, first compound 0.03 µM",36.5%
same,"viability, T/C","second compound 0.0316 µM, first compound 0.0949 µM",34.8%
same,"viability, T/C","second compound 0.0316 µM, first compound 0.3 µM",27.4%
same,"viability, T/C","second compound 0.1 µM, first compound 0.000949 µM",97.8%
same,"viability, T/C","second compound 0.1 µM, first compound 0.003 µM",77.9%
same,"viability, T/C","second compound 0.1 µM, first compound 0.00949 µM",72.9%
same,"viability, T/C","second compound 0.1 µM, first compound 0.03 µM",52.6%
same,"viability, T/C","second compound 0.1 µM, first compound 0.0949 µM",42.6%
same,"viability, T/C","second compound 0.1 µM, first compound 0.3 µM",27.1%
same,"viability, T/C","second compound 0.316 µM, first compound 0.000949 µM",86.2%
same,"viability, T/C","second compound 0.316 µM, first compound 0.003 µM",76%
same,"viability, T/C","second compound 0.316 µM, first compound 0.00949 µM",39.8%
same,"viability, T/C","second compound 0.316 µM, first compound 0.03 µM",61.5%
same,"viability, T/C","second compound 0.316 µM, first compound 0.0949 µM",40.7%
same,"viability, T/C","second compound 0.316 µM, first compound 0.3 µM",25.9%
same,"viability, T/C","second compound 1 µM, first compound 0.000949 µM",108%
same,"viability, T/C","second compound 1 µM, first compound 0.003 µM",89.7%
same,"viability, T/C","second compound 1 µM, first compound 0.00949 µM",77.2%
same,"viability, T/C","second compound 1 µM, first compound 0.03 µM",58.6%
same,"viability, T/C","second compound 1 µM, first compound 0.0949 µM",36.1%
same,"viability, T/C","second compound 1 µM, first compound 0.3 µM",32.3%
NC1CCC(NC2CC2c2ccccc2)CC1 (stereo not given) + CNC(C)C(=O)NC1CN(S(=O)(=O)c2cccc(S(=O)(=O)N3CCC4CCC(C(=O)NC(c5ccccc5)c5ccccc5)N4C(=O)C(NC(=O)C(C)NC)C3)c2)CCC2CCC(C(=O)NC(c3ccccc3)c3ccccc3)N2C1=O,IC50,second compound 0.01 µM,> 100 nM
same,IC50,second compound 0.0316 µM,> 100 nM
same,IC50,second compound 0.1 µM,> 100 nM
same,IC50,second compound 0.316 µM,> 100 nM
same,IC50,second compound 1 µM,> 100 nM
same,"viability, T/C","second compound 0.01 µM, first compound 0.000316 µM",79.9%
same,"viability, T/C","second compound 0.01 µM, first compound 0.001 µM",70.7%
same,"viability, T/C","second compound 0.01 µM, first compound 0.00316 µM",82.2%
same,"viability, T/C","second compound 0.01 µM, first compound 0.01 µM",80.9%
same,"viability, T/C","second compound 0.01 µM, first compound 0.0316 µM",71.6%
same,"viability, T/C","second compound 0.01 µM, first compound 0.1 µM",69.1%
same,"viability, T/C","second compound 0.0316 µM, first compound 0.000316 µM",88.5%
same,"viability, T/C","second compound 0.0316 µM, first compound 0.001 µM",81.4%
same,"viability, T/C","second compound 0.0316 µM, first compound 0.00316 µM",61%
same,"viability, T/C","second compound 0.0316 µM, first compound 0.01 µM",79%
same,"viability, T/C","second compound 0.0316 µM, first compound 0.0316 µM",72%
same,"viability, T/C","second compound 0.0316 µM, first compound 0.1 µM",64.8%
same,"viability, T/C","second compound 0.1 µM, first compound 0.000316 µM",66.5%
same,"viability, T/C","second compound 0.1 µM, first compound 0.001 µM",83.7%
same,"viability, T/C","second compound 0.1 µM, first compound 0.00316 µM",80.7%
same,"viability, T/C","second compound 0.1 µM, first compound 0.01 µM",74.2%
same,"viability, T/C","second compound 0.1 µM, first compound 0.0316 µM",85.8%
same,"viability, T/C","second compound 0.1 µM, first compound 0.1 µM",58.8%
same,"viability, T/C","second compound 0.316 µM, first compound 0.000316 µM",73.8%
same,"viability, T/C","second compound 0.316 µM, first compound 0.001 µM",93.5%
same,"viability, T/C","second compound 0.316 µM, first compound 0.00316 µM",83%
same,"viability, T/C","second compound 0.316 µM, first compound 0.01 µM",49%
same,"viability, T/C","second compound 0.316 µM, first compound 0.0316 µM",68.7%
same,"viability, T/C","second compound 0.316 µM, first compound 0.1 µM",72%
same,"viability, T/C","second compound 1 µM, first compound 0.000316 µM",82%
same,"viability, T/C","second compound 1 µM, first compound 0.001 µM",70.5%
same,"viability, T/C","second compound 1 µM, first compound 0.00316 µM",87.3%
same,"viability, T/C","second compound 1 µM, first compound 0.01 µM",90%
same,"viability, T/C","second compound 1 µM, first compound 0.0316 µM",56.6%
same,"viability, T/C","second compound 1 µM, first compound 0.1 µM",66.5%
